In ChEMBL document CHEMBL1201862, “PubChem BioAssay data set” (2004):
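Method: 48-hour compound exposure of cells in 96-well plates, five concentrations, linear interpolation of endpoints. The concentration for 50% growth inhibition is given as GI50.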 The source made the active and inactive calls. Rule as the data show it: active = GI50 up to about 1.1 µM and inactive = higher.

Tests used:
Assay in all cases: DTP human tumour cell line panel, 48 h
[1] = test system: SW-620
[2] = test system: K562
[3] = test system: MDA-N
[4] = test system: LOX IMVI
[5] = test system: UO-31
[6] = test system: RPMI-8226
[7] = test system: OVCAR-8
[8] = test system: U-251
[9] = test system: SK-MEL-5
[10] = test system: DU-145
[11] = test system: A549
[12] = test system: SR
[13] = test system: HT-29
[14] = test system: CCRF-CEM
[15] = test system: MDA-MB-231
[16] = test system: UACC-257
[17] = test system: MDA-MB-435
[18] = test system: SK-MEL-28
[19] = test system: IGROV-1
[20] = test system: NCI/ADR-RES
[21] = test system: SNB-75
[22] = test system: M14
[23] = test system: NCI-H23
[24] = test system: ACHN
[25] = test system: HL-60
[26] = test system: COLO 205
[27] = test system: SNB-19
[28] = test system: PC-3
[29] = test system: SN12C
[30] = test system: SF-268
[31] = test system: HOP-92
[32] = test system: Hs-578T
[33] = test system: MCF7
[34] = test system: T47D
[35] = test system: SF-539
[36] = test system: OVCAR-3
[37] = test system: NCI-H460
[38] = test system: KM12
[39] = test system: CAKI-1
[40] = test system: NCI-H226
[41] = test system: OVCAR-4
[42] = test system: MOLT-4
[43] = test system: HCT-116
[44] = test system: 786-0
[45] = test system: EKVX
[46] = test system: NCI-H522
[47] = test system: HCT-15
[48] = test system: HOP-62
[49] = test system: Malme-3M
[50] = test system: SF-295
[51] = test system: HCC 2998
[52] = test system: OVCAR-5
[53] = test system: TK-10
[54] = test system: A498
[55] = test system: RXF 393

Measured: GI50

Cl.O=C(O)c1cccnc1
inactive: [1] > 100 µM | [2] > 100 µM | [3] > 100 µM | [4] > 100 µM | [5] > 100 µM | [6] > 100 µM | [7] > 100 µM | [8] > 100 µM | [9] > 100 µM | [10] > 100 µM | [11] > 100 µM | [12] > 100 µM | [13] > 100 µM | [14] > 100 µM | [15] > 100 µM | [16] > 100 µM | [17] > 100 µM | [18] > 100 µM | [19] > 100 µM | [20] > 100 µM | [21] > 100 µM | [22] > 100 µM | [23] > 100 µM | [24] > 100 µM | [25] > 100 µM | [26] > 100 µM | [27] > 100 µM | [28] > 100 µM | [29] > 100 µM | [30] > 100 µM | [31] > 100 µM | [32] > 100 µM | [33] > 100 µM | [34] > 100 µM | [35] 34.8 µM | [36] > 100 µM | [37] > 100 µM | [38] > 100 µM | [39] > 100 µM | [40] > 100 µM | [41] > 100 µM | [42] > 100 µM | [43] > 100 µM | [44] > 100 µM | [45] > 100 µM | [46] > 100 µM | [48] > 100 µM | [49] > 100 µM | [50] > 100 µM | [51] > 100 µM | [52] 64.4 µM | [53] > 100 µM
> 100 µM: [47]

CCN1C(c2ccccc2)=CC(c2ccccc2)(C(Cl)(Cl)Cl)C=C1c1ccccc1
42.9 µM: [47]
inactive: [1] 7.82 µM | [2] 2.52 µM | [3] 4.94 µM | [4] 8.45 µM | [5] 34.6 µM | [6] 2.22 µM | [7] 6.49 µM | [8] 6.01 µM | [9] 1.7 µM | [10] 14.8 µM | [11] 32.4 µM | [12] > 10 µM | [13] 3.48 µM | [14] 5.58 µM | [15] 3.4 µM | [16] 4.56 µM | [17] 2.74 µM | [18] 3.92 µM | [19] 4.7 µM | [20] 40.1 µM | [21] 5.06 µM | [22] 4.35 µM | [23] 8.81 µM | [24] 24.9 µM | [27] 4.46 µM | [54] 17.3 µM | [28] 20.6 µM | [29] 45.3 µM | [30] 11.5 µM | [31] 3.11 µM | [32] 25.7 µM | [33] 5.92 µM | [35] 15.6 µM | [36] 7 µM | [37] 7.5 µM | [38] 3.31 µM | [39] 30.8 µM | [40] 19.2 µM | [41] 24 µM | [42] 10.9 µM | [43] 4.66 µM | [44] 9.44 µM | [55] 17.5 µM | [45] 4.22 µM | [46] 5.69 µM | [48] 18.9 µM | [49] 4.5 µM | [50] 32.5 µM | [51] 3.04 µM | [52] 15.1 µM | [53] 17.7 µM
active: [25] 1.1 µM | [34] 0.44 µM
